Reference: PMC3556473, “Absorption, metabolism and excretion of [^14C]pomalidomide in humans following oral administration” (Cancer Chemotherapy and Pharmacology, 2012)
Like-named read-outs stand apart in the source and are kept apart here. Values belong to the compound of their own block, whether it stands above or below them.

Columns and labels:
[1] = Plasma pharmacokinetics of pomalidomide and its enantiomers (chiral LC–MS/MS) after a single oral 2 mg dose of [14C]pomalidomide; type: in vivo, human; conditions: for C max: healthy male subjects; for C max / AUC0−t / AUC0−∞ / t ½: mean ± SD (n = 8); for T max: median (min–max)
From the text: This was an open-label, in-patient, single-dose study in eight non-smoking healthy male adult volunteers conducted in accordance with Good Clinical Practices (GCP) and in compliance with the Declaration of Helsinki. The protocol and consent form were reviewed and approved by the appropriate institutional review board, and all study participants gave written informed consent, before initiation of any study-related procedure. Male subjects were eligible based on standard inclusion/exclusion criteria and were excluded if they had exposure to excess radiation or participated in a study involving radioisotopes within the previous 12 months. Subjects entered the study center on the day prior to dosing and remained at the center for up to 15 days following dosing or until the total radioactivity recovered in excreta was ≥90 % or the radioactivity recovered in excreta per day on three consecutive days was ≤1 % of the administered radioactive dose.
Each subject was administered a single oral suspension of 2 mg (100 μCi) of [^14C]pomalidomide in seltzer water (75 mL) followed by administration of an additional 140 mL of distilled water. Subjects were fasted for 8 h prior to and 4 h following dose administration. The residual radioactivity in the dosing vials was determined, and for six of the eight subjects (subjects 1–4, 6 and 8), the administered dose (1.93–2.02 mg) was close to the target dose of 2 mg. For subjects 5 and 7, a significant amount of radioactivity remained in the dose vial, resulting in administered doses of 1.59 and 1.51 mg, respectively. Calculations for percent of dose recovered in excreta were based on the actual administered doses.
Blood was collected into pre-chilled K3EDTA tubes at pre-dose, 0.5, 1, 1.5, 2, 2.5, 3, 4, 6, 8, 10, 12, 24, 48, 72, 120 and 168 h following dose administration. Blood for radioactivity counting was transferred to a clean tube and stored at or below 4 °C until analyzed. Plasma was harvested by centrifugation from the remaining blood. A plasma sample for radioactivity counting was transferred to a fresh tube. Three plasma aliquots were transferred to tubes containing citric acid for metabolite profiling and for determination of pomalidomide enantiomer concentrations in plasma. Urine was collected pre-dose, 0–6, 6-12, 12–24 and every 24 h thereafter up to 216 h (9 days) following dose administration and were stabilized with one volume of pH 1.5 Sorensen’s citrate buffer (25 mM sodium citrate buffer adjusted to pH 1.5). During the 12- to 24-h collection interval for subject 4, approximately 550 mL of urine was inadvertently poured into the wrong collection urinal and the sample was lost. […] Individual fecal samples were collected pre-dose and for up to 9 days following dose administration, and homogenized using approximately three volumes by weight of pH 1.5 Sorensen’s citrate buffer. All urine, fecal homogenates and plasma samples were stored at or below −20 °C until analyzed.
Plasma concentrations of each pomalidomide enantiomer were determined using a chiral LC–MS/MS assay. The pomalidomide enantiomers and ^13C-labeled pomalidomide (internal standard; IS) were extracted from plasma (stabilized with citric acid) using liquid–liquid extraction with methyl tertiary butyl ether. After transfer to a new tube, the solvent was evaporated, and the samples were reconstituted and injected for LC–MS/MS analysis using a Chiral AGP (50 × 3.0 mm, 5 μm; Chrom Tech, Inc., Apple Valley, MN) analytical column. Positive ions were measured in the multiple reaction monitoring (MRM) mode using a Sciex API-4000 tandem mass spectrometer equipped with a Turbo Ion Spray source. For the QC samples, the accuracy ranged from 91.0 to 106.9 %. For study samples, the amount of [^14C]-labeled material was accounted for when calculating the concentration of enantiomers in plasma using an appropriate correction factor. […]

[2] = lenalidomide, cited from earlier work
[3] = Plasma pharmacokinetics of pomalidomide and circulating metabolites by radiochromatography (metabolite profiling); type: in vivo, human; parameters: AUC0–24 / AUC0−∞: concentration or dose not given beside the values
Experimental: Individual plasma samples collected from all subjects at 1, 2.5, 4, 6, 10, 12 and 24 h post-dose were analyzed for metabolite profiling. Samples were extracted with acetonitrile, the supernatant was removed, and the pellet was washed with 0.1 % formic acid in water and extracted again with acetonitrile. The combined supernatants were adjusted to 15 or 25 mL by adding acetonitrile then evaporated to dryness under a stream of nitrogen. The residues were re-suspended in 0.1 % formic acid in water, assayed for extraction recovery and analyzed for metabolite profiling. A control plasma sample spiked with [^14C]pomalidomide was extracted in a similar manner to determine the extraction efficiency and stability of [^14C]pomalidomide.
(§1) HPLC analysis for metabolite profiling (HPLC Method 1) was performed using a Waters 2695 Alliance Separation Module (Waters Corp., Milford, MA) with the autosampler set to 4 °C. [^14C]Pomalidomide and metabolites were separated using an ACE C18 column (150 × 4.6 mm, 3 μm; Advanced Chromatography Technologies, Aberdeen, Scotland) equipped with an ACE C18 guard column (10 × 3 mm, 3 μm). The mobile phases used were 25 mM ammonium acetate in water: pH 5.5 with formic acid (mobile phase A) and methanol (mobile phase B). The column temperature was 30 °C, and the flow rate was 0.7 mL/min. The linear gradient was delivered as follows: 0–2 min 100 % A; 2–38 min to 64 % A; 38–44 min to 0 % A; 44–48 min hold at 0 % A; return to initial conditions over 2 min.
(§2) Radioactivity profiles for plasma and excreta were determined by collecting the column eluate into 96-well Deepwell LumaPlates™ at a rate of 0.25 min/fraction. The plates were dried and the radioactivity in each well determined using a PerkinElmer TopCount® NXT™ Microplate Scintillation Counter. HPLC radiochromatograms were reconstructed using LC-ARC data handling software.
For pomalidomide and metabolite concentrations in plasma based on metabolite profiling data, pharmacokinetic data were generated by non-compartmental analysis of plasma versus time profiles using WinNonlin (version 4.1, Enterprise Edition).

[4] = Metabolite profiling of urine and feces (% of dose excreted); type: in vivo, human; conditions: radiochromatography; for % of dose excreted, Urine: pooled urine 0–72 h
Experimental: For each subject, urine samples were pooled using an equal percentage by volume of the 0–6, 6–12, 12–24, 24–48 and 48–72 h samples. Pools of the 0–6, 6–12, 12–24, 24–48 and 48-72 h collections were also prepared across subjects and analyzed for metabolite profiling. Samples were mixed and centrifuged prior to the supernatants being transferred to fresh tubes for metabolite profiling analysis.
For each subject, fecal homogenates for metabolite profiling were pooled using an equal percentage by weight of the 0–24, 24–48, 48–72 and 72–96 h samples. Pools of the 0–24, 24-48, 48–72 and 72–96 h collections were also prepared across subjects and analyzed for metabolite profiling. An aliquot of each pool was extracted with acetonitrile; samples were mixed and centrifuged. The supernatant was removed and the pellets re-suspended with 0.1 % formic acid and extracted with acetonitrile. The combined supernatants were evaporated to dryness under a stream of nitrogen and the residue re-suspended in methanol:0.1 % formic acid in water (1:1). Samples were assayed for extraction recovery prior to metabolite profiling. A control fecal homogenate spiked with [^14C]pomalidomide was extracted in a similar manner to determine the extraction efficiency and stability of [^14C]pomalidomide.
as §1, §2

[5] = test system: H929 MM cell; assay: Inhibition of MM cell proliferation ([3H]-thymidine incorporation, 3-day culture); type: cell-based; conditions: Homo sapiens, NCI-H929
Experimental: (§3) Metabolites and hydrolysis products of pomalidomide were tested for pharmacological activity in the following three assay systems: (1) inhibition of MM cell proliferation, (2) enhancement of primary human T cell IL-2 production and (3) inhibition of TNF-α production by lipopolysaccharide (LPS)-stimulated human peripheral blood mononuclear cells (PBMC). For all three assay types, compounds were dissolved in 100 % dimethyl sulfoxide (DMSO) and diluted into complete cell culture medium, consisting of Roswell Park Memorial Institute (RPMI)-1640 plus penicillin, streptomycin and L-glutamine (Mediatech, Manassas, VA). The MM cell proliferation cell culture medium contained 10 % fetal bovine serum, while the primary human cell cultures contained 10 % human AB serum (Invitrogen, Brown Deer, WI). The final DMSO concentration in the cell culture media was 0.25 %.
(§4) The human MM cell line OPM-2 was obtained from DSMZ (Braunschweig, Germany), and human MM cell lines U266 B1 and NCI-H929 were obtained from ATCC (Manassas, VA). Inhibition of MM cell proliferation was assessed by the [^3H]-thymidine incorporation assay in a 3-day culture in the presence of compounds in complete medium, as previously described. Primary human T cells were isolated from PBMC by negative selection using the RosetteSep T Cell Enrichment Cocktail (STEMCELL Technologies, Tukwila, WA) according to the manufacturer’s procedures. Costimulation of T cell IL-2 production was measured in a 2-day culture of primary human T cells isolated from healthy donors stimulated with anti-CD3 antibody in the presence of compounds, as previously described. Inhibition of TNF-α production by LPS-stimulated human PBMC was measured in a 1-day culture in the presence of compound, as previously described.

[6] = test system: OPM-2 MM cell; assay: as above; type: cell-based; conditions: Homo sapiens
Experimental: as §3, §4

[7] = test system: U266 MM cell; assay: as above; type: cell-based; conditions: Homo sapiens, U-266
Experimental: as §3, §4

[8] = test system: T cell IL-2 production; assay: Enhancement of primary human T cell IL-2 production (anti-CD3 stimulated, 2-day culture); type: cell-based; conditions: 48 h, anti-CD3 stimulated primary human T cells
Experimental: as §3, §4

[9] = test system: PBMC TNF-α production; assay: Inhibition of TNF-α production by LPS-stimulated human PBMC (1-day culture); type: cell-based; conditions: 24 h
Experimental: as §3, §4

[10] = plasma, radiochromatography, geometric mean (%CV)

C max [1]: 6.36 ± 2.08 ng/mL
AUC0−t [1]: 67.7 ± 33.8 ng·h/mL
AUC0−∞ [1]: 95.1 ± 46.1 ng·h/mL
t ½ [1]: 9.5 ± 3.2 h
T max [1]: 3.0 (2.5–6.0) h
SMILES: Nc1cccc2c1C(=O)N([C@@H]1CCC(=O)NC1=O)C2=O (single isomer, unassigned) [R-enantiomer]

C max [1]: 6.78 ± 1.99 ng/mL
AUC0−t [1]: 66.9 ± 34.1 ng·h/mL
AUC0−∞ [1]: 96.4 ± 58.2 ng·h/mL
t ½ [1]: 8.8 ± 4.5 h
T max [1]: 3.0 (1.0–6.0) h
SMILES: Nc1cccc2c1C(=O)N([C@H]1CCC(=O)NC1=O)C2=O (single isomer, unassigned) [S-enantiomer]

SMILES: Nc1cccc2c1CN(C1CCC(=O)NC1=O)C2=O (stereo not drawn) [Lenalidomide, lenalidomide]
Percent dose excreted in human urine, Metabolites (oxidative and conjugative) [2]: 5.3%
Percent dose excreted in human urine, Parent [2]: 81.7%
Percent dose excreted in human urine, Total [2]: 90.3%
Percent dose excreted in human urine, Parent ([2]; listed as lenalidomide): > 80%
Percent dose excreted in human urine, Total ([2]; listed as lenalidomide): > 90%

Plasma (% AUC relative to TRA) ([3]; AUC0–24 (unchanged drug or metabolite)/AUC0–24 (TRA) * 100 %): 1.7%
Tmax ([3]; human, oral, 2 mg, plasma, radiochromatography, median and range): 6 h
half-life ([3]; male, human, plasma, oral, 2 mg, plasma, radiochromatography, geometric mean (%CV), read-out: t ½ (converted)): 13.2 h
AUC/AUCTRA ([3]; plasma exposure relative to total radioactivity): 1.71%
AUC0–24 [3, 10]: 3.31 (28.4) ngEq*h/mL
AUC0−∞ [3, 10]: 4.27 (12.7) ngEq*h/mL
C max [3, 10]: 0.238 (36.3) ngEq/mL
% of dose excreted, Urine [4]: 1.4%
SMILES: Nc1cccc(C(=O)O)c1C(=O)O [Metabolite M2, 3-Aminophthalic acid]

% of dose excreted, Feces ([4]; pooled feces 0–96 h): 0.3%
% of dose excreted, Urine [4]: 1.5%
IC50 [5]: > 1000 nM
IC50 [7]: > 1000 nM
EC50 [8]: 720 nM
SMILES: NC(=O)C(CCC(=O)O)N1C(=O)c2cccc(N)c2C1=O (stereo not drawn) [Metabolite M10]
IC50 [6]: > 1000 nM
IC50 [9]: > 10000 nM
